biological target: human TYK2 (JH2domain-pseudokinase) (Homo sapiens (Human), UniProt P29597); test: TYK2 JH2 Domain Binding Assay (KINOMEscan); conditions: 11-point 3-fold dilution, top concentration 30,000 nM, duplicate; read-out: hTYK2_JH2_Binding (Kd; nM)
Method: Binding constants for compounds of the present invention against the JH2 domain were determined by the following protocol for a KINOMEscan® assay (DiscoveRx). A fusion protein of a partial length construct of human TYK2 (JH2domain-pseudokinase) (amino acids G556 to D888 based on reference sequence NP_003322.3) and the DNA binding domain of NFkB was expressed in transiently transfected HEK293 cells. From these HEK 293 cells, extracts were prepared in M-PER extraction buffer (Pierce) in the presence of Protease Inhibitor Cocktail Complete (Roche) and Phosphatase Inhibitor Cocktail Set II (Merck) per manufacturers' instructions. The TYK2(JH2domain-pseudokinase) fusion protein was labeled with a chimeric double-stranded DNA tag containing the NFkB binding site (5′-[…]-3′) fused to an amplicon for qPCR readout, which was added directly to the expression extract (the final concentration of DNA-tag in the binding reaction is 0.1 nM).
The liganded beads were blocked with excess biotin and washed with blocking buffer (SeaBlock (Pierce), 1% BSA, 0.05% Tween 20, 1 mM DTT) to remove unbound ligand and to reduce nonspecific binding.
Extracts were loaded with DNA-tag and diluted into the binding reaction in a two step process. First extracts were diluted 1:100 in 1× binding buffer (PBS/0.05% Tween 20/10 mM DTT/0.1% BSA/2 μg/ml sonicated salmon sperm DNA) containing 10 nM DNA-tag. This dilution was allowed to equilibrate at room temperature for 15 minutes and then subsequently diluted 1:100 in 1× binding buffer. […] Kds were determined using an 11-point 3-fold compound dilution series with three DMSO control points. […] The compounds were then diluted directly into the assays such that the final concentration of DMSO was 0.9%. All reactions performed in polypropylene 384-well plates. Each was a final volume of 0.02 mL. Assays were incubated with shaking for 1 hour at room temperature. Then the beads were pelleted and washed with wash buffer (lx PBS, 0.05% Tween 20) to remove displaced kinase and test compound. […] The qPCR protocol consisted of a 10 minute hot start at 95° C., followed by 35 cycles of 95° C. for 15 seconds, 60° C. for 1 minute.
Kds were determined using an 11-point 3-fold compound dilution series with three DMSO control points. […] The compounds were then diluted directly into the assays such that the final concentration of DMSO was 0.9%. The Kds were determined using a compound top concentration of 30,000 nM. Kd measurements were performed in duplicate.
Binding constants (Kds) were calculated with a standard dose-response curve using the Hill equation: […]
The Hill Slope was set to −1.

human TYK2 (JH2domain-pseudokinase), sequence (P29597 556-888): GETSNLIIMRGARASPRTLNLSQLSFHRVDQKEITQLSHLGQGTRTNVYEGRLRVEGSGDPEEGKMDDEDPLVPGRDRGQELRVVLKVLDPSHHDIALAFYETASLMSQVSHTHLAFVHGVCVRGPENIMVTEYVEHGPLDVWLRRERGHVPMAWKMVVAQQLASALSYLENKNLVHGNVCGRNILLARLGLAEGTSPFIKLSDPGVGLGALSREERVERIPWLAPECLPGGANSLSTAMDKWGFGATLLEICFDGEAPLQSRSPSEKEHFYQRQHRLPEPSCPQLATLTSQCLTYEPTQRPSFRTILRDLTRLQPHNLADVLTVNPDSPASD

| SMILES | Kd |
| --- | --- |
| CNc1cc(Nc2cccn([C@@H]3C[C@H]3F)c2=O)nc2c(C(=O)N[C@@H]3CC[C@H](O)C3)cnn12 [Compound I-42, 5-((1-((1R,2R)-2-Fluorocyclopropyl)-2-oxo-1,2-dihydropyridin-3-yl)amino)-N-((1R,3S)-3-hydroxycyclopentyl)-7-(methylamino)pyrazolo[1,5-a]pyrimidine-3-carboxamide] | 0.2 to 1 nM |
| CNc1cc(Nc2cccn([C@@H]3C[C@H]3F)c2=O)nc2c(C(=O)N[C@H]3CC[C@@H](O)C3)cnn12 [Compound I-43, 5-((1-((1R,2R)-2-Fluorocyclopropyl)-2-oxo-1,2-dihydropyridin-3-yl)amino)-N-((1S,3R)-3-hydroxycyclopentyl)-7-(methylamino)pyrazolo[1,5-a]pyrimidine-3-carboxamide] | 0.2 to 1 nM |
| CNc1cc(Nc2cccn([C@H]3C[C@@H]3F)c2=O)nc2c(C(=O)N[C@@H]3CC[C@H](O)C3)cnn12 [Compound I-44, 5-((1-((1S,2S)-2-Fluorocyclopropyl)-2-oxo-1,2-dihydropyridin-3-yl)amino)-N-((1R,3S)-3-hydroxycyclopentyl)-7-(methylamino)pyrazolo[1,5-a]pyrimidine-3-carboxamide] | 0.2 to 1 nM |
| CNc1cc(Nc2cccn([C@H]3C[C@@H]3F)c2=O)nc2c(C(=O)N[C@H]3CC[C@@H](O)C3)cnn12 [Compound I-45, 5-((1-((1S,2S)-2-Fluorocyclopropyl)-2-oxo-1,2-dihydropyridin-3-yl)amino)-N-((1S,3R)-3-hydroxycyclopentyl)-7-(methylamino)pyrazolo[1,5-a]pyrimidine-3-carboxamide] | 0.2 to 1 nM |
| CNc1cc(Nc2cccn([C@H]3C[C@@H]3F)c2=O)nc2c(C(=O)N[C@@H]3CC[C@H]3OC)cnn12 [Compound I-50, 5-((1-((1S,2S)-2-Fluorocyclopropyl)-2-oxo-1,2-dihydropyridin-3-yl)amino)-N-((1R,2R)-2-methoxycyclobutyl)-7-(methylamino)pyrazolo[1,5-a]pyrimidine-3-carboxamide] | 1 to 10 nM |
| CNc1cc(Nc2cccn([C@@H]3C[C@H]3F)c2=O)nc2c(C(=O)N[C@H]3CC[C@@H]3OC)cnn12 [Compound I-52, 5-((1-((1R,2R)-2-Fluorocyclopropyl)-2-oxo-1,2-dihydropyridin-3-yl)amino)-N-((1S,2S)-2-methoxycyclobutyl)-7-(methylamino)pyrazolo[1,5-a]pyrimidine-3-carboxamide] | 0.2 to 1 nM |
| CNc1cc(-c2cn(CCN3CCOCC3)c3ncccc23)nc2c(C(=O)N[C@@H]3CC[C@H]3OC)cnn12 [Compound I-55, N-((1R,2R)-2-Methoxycyclobutyl)-7-(methylamino)-5-(1-(2-morpholinoethyl)-1H-pyrrolo[2,3-b]pyridin-3-yl)pyrazolo[1,5-a]pyrimidine-3-carboxamide] | 0.2 to 1 nM |
| CNc1cc(-c2cn([C@H]3CCCOC3)c3ncccc23)nc2c(C(=O)N[C@@H]3COC[C@@H]3O)cnn12 [Compound I-61, N-((3R,4R)-4-Hydroxytetrahydrofuran-3-yl)-7-(methylamino)-5-(1-((S)-tetrahydro-2H-pyran-3-yl)-1H-pyrrolo[2,3-b]pyridin-3-yl)pyrazolo[1,5-a]pyrimidine-3-carboxamide] | 1 to 10 nM |
| CNc1cc(Nc2cccn(C3CC(F)(F)C3)c2=O)nc2c(C(=O)N[C@@H]3CC[C@@H](OC)C3)cnn12 [Compound I-72, 5-((1-(3,3-Difluorocyclobutyl)-2-oxo-1,2-dihydropyridin-3-yl)amino)-N-((1R,3R)-3-methoxycyclopentyl)-7-(methylamino)pyrazolo[1,5-a]pyrimidine-3-carboxamide] | 1 to 10 nM |
| CNc1cc(Nc2cccn(C3CC(F)(F)C3)c2=O)nc2c(C(=O)N[C@H]3CC[C@H](OC)C3)cnn12 [Compound I-73, 5-((1-(3,3-Difluorocyclobutyl)-2-oxo-1,2-dihydropyridin-3-yl)amino)-N-((1S,3S)-3-methoxycyclopentyl)-7-(methylamino)pyrazolo[1,5-a]pyrimidine-3-carboxamide] | 1 to 10 nM |
| CNc1cc(Nc2cccn([C@@H]3CCC[C@@H]3O)c2=O)nc2c(C(=O)N[C@@H]3CC[C@@H](OC)C3)cnn12 [Compound I-78, 5-((1-((1R,2S)-2-Hydroxycyclopentyl)-2-oxo-1,2-dihydropyridin-3-yl)amino)-N-((1R,3R)-3-methoxycyclopentyl)-7-(methylamino)pyrazolo[1,5-a]pyrimidine-3-carboxamide] | 0.2 to 1 nM |
| CNc1cc(Nc2cccn([C@@H]3CCC[C@@H]3O)c2=O)nc2c(C(=O)N[C@H]3CC[C@H](OC)C3)cnn12 [Compound I-79, 5-((1-((1R,2S)-2-Hydroxycyclopentyl)-2-oxo-1,2-dihydropyridin-3-yl)amino)-N-((1S,3S)-3-methoxycyclopentyl)-7-(methylamino)pyrazolo[1,5-a]pyrimidine-3-carboxamide] | 0.2 to 1 nM |
| CNc1cc(Nc2cccn([C@@H]3CC[C@@H]3O)c2=O)nc2c(C(=O)N[C@H]3CC[C@H](OC)C3)cnn12 [Compound I-82, 5-((1-((1R,2S)-2-Hydroxycyclobutyl)-2-oxo-1,2-dihydropyridin-3-yl)amino)-N-((1S,3S)-3-methoxycyclopentyl)-7-(methylamino)pyrazolo[1,5-a]pyrimidine-3-carboxamide] | > 10 nM |

The remaining lines, values ahead:

| Kd | SMILES |
| --- | --- |
| 0.2 to 1 nM | CNc1cc(-c2cn([C@H]3CCCOC3)c3ncccc23)nc2c(C(=O)N[C@H]3CC[C@H]3O)cnn12 [Compound I-15, N-((1S,2R)-2-Hydroxycyclobutyl)-7-(methylamino)-5-(1-((S)-tetrahydro-2H-pyran-3-yl)-1H-pyrrolo[2,3-b]pyridin-3-yl)pyrazolo[1,5-a]pyrimidine-3-carboxamide] |
| < 0.2 nM | CNc1cc(Nc2cccn(C3CCOCC3)c2=O)nc2c(C(=O)N[C@@H]3C[C@H]3OC)cnn12 [Compound I-27, N-((1R,2R)-2-Methoxycyclopropyl)-7-(methylamino)-5-((2-oxo-1-(tetrahydro-2H-pyran-4-yl)-1,2-dihydropyridin-3-yl)amino)pyrazolo[1,5-a]pyrimidine-3-carboxamide] |
| < 0.2 nM | CNc1cc(Nc2cccn(C3CCOCC3)c2=O)nc2c(C(=O)N[C@H]3C[C@@H]3OC)cnn12 [Compound I-28, N-((1S,2S)-2-Methoxycyclopropyl)-7-(methylamino)-5-((2-oxo-1-(tetrahydro-2H-pyran-4-yl)-1,2-dihydropyridin-3-yl)amino)pyrazol[1,5-a]pyrimidine-3-carboxamide] |
| 0.2 to 1 nM | CNc1cc(Nc2cccn(C(C)C)c2=O)nc2c(C(=O)N[C@@H]3C[C@H]3OC)cnn12 [Compound I-29, 5-((1-Isopropyl-2-oxo-1,2-dihydropyridin-3-yl)amino)-N-((1R,2R)-2-methoxycyclopropyl)-7-(methylamino)pyrazolo[1,5-a]pyrimidine-3-carboxamide] |
| 0.2 to 1 nM | CNc1cc(Nc2cccn(C(C)C)c2=O)nc2c(C(=O)N[C@H]3C[C@@H]3OC)cnn12 [Compound I-30, 5-((1-Isopropyl-2-oxo-1,2-dihydropyridin-3-yl)amino)-N-((1S,2S)-2-methoxycyclopropyl)-7-(methylamino)pyrazolo[1,5-a]pyrimidine-3-carboxamide] |
| < 0.2 nM | CNc1cc(Nc2cccn(-c3ccc(C)nc3)c2=O)nc2c(C(=O)N[C@H]3C[C@@H]3OC)cnn12 [Compound I-35, N-((1S,2S)-2-Methoxycyclopropyl)-5-((6′-methyl-2-oxo-2H-[1,3′-bipyridin]-3-yl)amino)-7-(methylamino)pyrazolo[1,5-a]pyrimidine-3-carboxamide] |
| < 0.2 nM | CNc1cc(-c2cn(CCN3CCOCC3)c3ncccc23)nc2c(C(=O)N[C@H]3CC[C@@H]3OC)cnn12 [Compound I-54, N-((1S,2S)-2-Methoxycyclobutyl)-7-(methylamino)-5-(1-(2-morpholinoethyl)-1H-pyrrolo[2,3-b]pyridin-3-yl)pyrazolo[1,5-a]pyrimidine-3-carboxamide] |
| < 0.2 nM | CNc1cc(-c2cn([C@H]3CCCOC3)c3ncccc23)nc2c(C(=O)N[C@H]3COC[C@H]3O)cnn12 [Compound I-60, N-((3S,4S)-4-Hydroxytetrahydrofuran-3-yl)-7-(methylamino)-5-(1-((S)-tetrahydro-2H-pyran-3-yl)-1H-pyrrolo[2,3-b]pyridin-3-yl)pyrazolo[1,5-a]pyrimidine-3-carboxamide] |
| < 0.2 nM | CNc1cc(-c2cn(C3CCOCC3)c3ncccc23)nc2c(C(=O)N[C@H]3CCC[C@H](O)C3)cnn12 [Compound I-65, N-((1S,3S)-3-Hydroxycyclohexyl)-7-(methylamino)-5-(1-(tetrahydro-2H-pyran-4-yl)-1H-pyrrolo[2,3-b]pyridin-3-yl)pyrazolo[1,5-a]pyrimidine-3-carboxamide] |

Source: patent US11414431B2, “Substituted pyrazolo[1,5-a]pyrimidines as TYK2 inhibitors” (Nimbus Lakshmi, Inc., priority 2018, dated 2022)
